From US12029748B2, “Synergistic composition for maintenance of healthy balance of microflora” (KIMBERLY-CLARK WORLDWIDE, INC., priority 2017, dated 2024)
Where a SMILES comes first, the peptide text is derived from it.

Key:
L. crispatus and E. coli = assay: Therapeutic Effect Protocol: L. crispatus / E. coli co-culture, ratio after 36 hours; type: cell-based, Lactobacillus crispatus; E. coli; details: for Therapeutic Efficacy Results (Lactobacillus/E. coli) 0.10%: nitrogen compound 0.10 wt/vol % with 1.0 wt/vol % α methyl-D glucoside (10:1); for Therapeutic Efficacy Results (Lactobacillus/E. coli) 0.10% / Therapeutic Efficacy Results (Lactobacillus/E. coli) 0.50% / Therapeutic Efficacy Results (Lactobacillus/E. coli) 1.00%: 36 hours anaerobic co-culture, 37° C.; for Therapeutic Efficacy Results (Lactobacillus/E. coli) 0.50%: nitrogen compound 0.50 wt/vol % with 1.0 wt/vol % α methyl-D glucoside (2:1); for Therapeutic Efficacy Results (Lactobacillus/E. coli) 1.00%: nitrogen compound 1.00 wt/vol % with 1.0 wt/vol % α methyl-D glucoside (1:1); for Therapeutic effect when ratio α methyl-D glucoside : nitrogen compound is at least about 2:1, but not at 1:1 / Therapeutic effect at ratio 2:1 and 10:1, but not at 1:1: with α methyl-D glucoside; for Therapeutic effect when ratio α methyl-D glucoside : nitrogen compound is at least about 2:1, but not at 1:1: ratio at least about 2:1, not 1:1; for Therapeutic effect at ratio 2:1 and 10:1, but not at 1:1: ratios 2:1 and 10:1, not 1:1
Method: As used herein the term “therapeutic effect” refers to the ability of the compositions and formulations of the present invention to stimulate the growth of Lactobacillus relative E. coli measured according to the Therapeutic Effect Protocol described below. Generally, therapeutic effect is expressed as a ratio of Lactobacillus to E. coli and is desirably greater than about 2, more preferably greater than about 20 and more desirably greater than about 100.
The data in Table 1 was tested according to the Therapeutic Effect Protocol as described further herein. The nitrogen compounds were tested for their therapeutic efficacy at three different concentrations when combined with α methyl-D glucoside (1% wt/vol %). The concentrations of the nitrogen containing compounds that were tested were 1% wt/vol %, 0.5% wt/vol %, and 0.1% wt/vol %.
Colonies of L. crispatus and E. coli were prepared as follows. A colony of L. crispatus was transferred to 7 ml de Man, Rogosa & Sharpe (MRS) broth and incubated anaerobically (using BD GasPak EZ anaerobe container system with indicator) at 37° C. without shaking for 18-20 hours. A colony of E. coli was transferred to 5 ml Tryptic Soy Broth (TSB) and incubated aerobically (shaking at 100 rpm) at 37° C. for 18-20 hours.
Colonies were then inoculated as follows. Bacterial cultures were gently vortexed and 1 mL of each culture was transferred to a corresponding 2.0 mL micro-centrifuge tube and then centrifuged for two minutes at 14,500 rpm. The cultural supernatant was removed and the cell pellet was re-suspended in 1 mL of 0.95% (wt/vol %) saline. […] For L. crispatus, the pellet was re-suspended in 1 mL of 0.95% saline to achieve ˜10^7-10^8 cfu/mL. For E. coli, the pellet was re-suspended in 1 mL of 0.95% saline to achieve ˜10^8-10^9 cfu/mL.
Media were prepared as follows.
(§1) All of the ingredients in Table 2 were combined and the pH was adjusted to 6.5. […] To evaluate the effect of various nitrogen containing therapeutic agents on the growth of bacteria, the LAPT-g media, prepared as described above, was supplemented with various nitrogen containing compound therapeutic agents to a final test concentration between 0.1 and 1.0%. As initial screening measures, solubility and initial pH of each composition were checked. If a specific composition was insoluble (as detected by visual indication of precipitates or turbidity), then no further therapeutic efficacy testing was undertaken on that composition. Additionally, if the initial pH of the composition was below 5.5 (“Low”) or was above 6.5 (“High”), then no further therapeutic efficacy testing was undertaken on that composition.
Five milliliters (5 mL) of each medium was transferred to a test tube in duplicates for subsequent inoculation. A master mixture of L. crispatus and E. coli, prepared as described above, was prepared in 1,000:1 ratio. Each (5 ml) test tube was inoculated with the master mixture to give 10^5-10^6 total CFU L. crispatus and 100-1,000 total CFU E. coli per tube.
To establish a negative control, one tube was vortexed and 100 μL was removed to determine the initial cell concentrations by serial dilutions and plating (2 plates per dilution). L. crispatus is selected on MRS agar plates incubated anaerobically at 37° C. for two days. E. coli is selected on TSA plates incubated aerobically at 37° C. for one day. The co-cultures were incubated in an anaerobic container with BD GasPaks at 37° C. for 36 hours.
The effect of the α methyl-D glucoside and the nitrogen containing compound therapeutic agents on the ratio of L. crispatus to E. coli was measured 36 hours after inoculation and a final pH of the test solutions was recorded. The co-culture tube was vortexed and 100 μL was removed to determine the final cell concentrations by serial dilutions and plating (2 plates per dilution). L. crispatus is selected on MRS agar plates incubated anaerobically at 37° C. for two days.

[1] = Initial pH screening of the composition; type: physicochemical; details: for I pH (initial pH), 0.10%: nitrogen compound 0.10 wt/vol % with 1.0 wt/vol % α methyl-D glucoside in medium; for I pH (initial pH), 0.50%: nitrogen compound 0.50 wt/vol % with 1.0 wt/vol % α methyl-D glucoside in medium; for I pH (initial pH), 1.00%: nitrogen compound 1.00 wt/vol % with 1.0 wt/vol % α methyl-D glucoside in medium
Source text: Each composition in Table 1 went through initial screening measures of solubility and initial pH (“I pH”). […] When a specific concentration of a nitrogen containing compound was insoluble, the initial and final pH (“F pH”) of the combined composition was not measured and accordingly are each marked as “NM.” Additionally, initial pH of the composition was checked as a screening measure. The initial pH was marked as either Low (“L”), High (“H”), or Pass (“P”). A Low initial pH corresponds to an initial pH being less than 5.5, a High initial pH corresponds to an initial pH being greater than 6.5, and a Pass initial pH corresponds to the pH being at or between 5.5-6.5. […] As part of the Therapeutic Effect Protocol, a final pH was also measured after the compositions that were tested against the Lactobacillus and E. coli.
as §1

Structure (SMILES)	Therapeutic Efficacy Results (Lactobacillus/E. coli) 0.10% (L. crispatus and E. coli)	Therapeutic Efficacy Results (Lactobacillus/E. coli) 0.50% (L. crispatus and E. coli)	Therapeutic Efficacy Results (Lactobacillus/E. coli) 1.00% (L. crispatus and E. coli)	Therapeutic effect when ratio α methyl-D glucoside : nitrogen compound is at least about 2:1, but not at 1:1 (L. crispatus and E. coli)	Therapeutic effect at ratio 2:1 and 10:1, but not at 1:1 (L. crispatus and E. coli)	I pH (initial pH), 0.10% [1]	I pH (initial pH), 0.50% [1]	I pH (initial pH), 1.00% [1]
NCC(=O)N[C@@H](CC(N)=O)C(=O)O [Gly-Asn] (H-Gly-Asn-OH)	108	>1.58E+04	1.3	provided a therapeutic effect	provided a therapeutic effect	P (a Pass initial pH corresponds to the pH being at or between 5.5-6.5)	P (a Pass initial pH corresponds to the pH being at or between 5.5-6.5)	P (a Pass initial pH corresponds to the pH being at or between 5.5-6.5)
NCC(=O)N[C@@H](CCC(N)=O)C(=O)O.O [Gly-Gln] (H-Gly-Gln-OH)	8.57	>189	0.38	provided a therapeutic effect	provided a therapeutic effect	P (a Pass initial pH corresponds to the pH being at or between 5.5-6.5)	P (a Pass initial pH corresponds to the pH being at or between 5.5-6.5)	P (a Pass initial pH corresponds to the pH being at or between 5.5-6.5)
NCC(=O)N[C@@H](CCC(=O)O)C(=O)O [Gly-Glu] (H-Gly-Glu-OH)	6.83	–	–	provided a therapeutic effect	–	P (a Pass initial pH corresponds to the pH being at or between 5.5-6.5)	L (A Low initial pH corresponds to an initial pH being less than 5.5)	L (A Low initial pH corresponds to an initial pH being less than 5.5)
CSCC[C@H](NC(=O)CN)C(=O)O [Gly-Met]	238	>2343.75	0.81	provided a therapeutic effect	provided a therapeutic effect	P (a Pass initial pH corresponds to the pH being at or between 5.5-6.5)	P (a Pass initial pH corresponds to the pH being at or between 5.5-6.5)	P (a Pass initial pH corresponds to the pH being at or between 5.5-6.5)
C[C@H](NC(=O)CN)C(=O)O [Glycyl-Alanine] (H-Gly-Ala-OH)	0.803	220	1.49	provided a therapeutic effect	–	P (a Pass initial pH corresponds to the pH being at or between 5.5-6.5)	P (a Pass initial pH corresponds to the pH being at or between 5.5-6.5)	P (a Pass initial pH corresponds to the pH being at or between 5.5-6.5)
C[C@H](N)C(=O)N[C@H](C(=O)O)[C@@H](C)O [H-Ala-Thr-OH] (H-Ala-Thr-OH)	212	>103	1.64	provided a therapeutic effect	provided a therapeutic effect	P (a Pass initial pH corresponds to the pH being at or between 5.5-6.5)	P (a Pass initial pH corresponds to the pH being at or between 5.5-6.5)	P (a Pass initial pH corresponds to the pH being at or between 5.5-6.5)
NO [Hydroxylamine]	0.20	–	–	–	–	H (a High initial pH corresponds to an initial pH being greater than 6.5)	H (a High initial pH corresponds to an initial pH being greater than 6.5)	H (a High initial pH corresponds to an initial pH being greater than 6.5)
OC[C@H]1O[C@@H](n2cnc3c(O)ncnc32)[C@H](O)[C@@H]1O [Inosine]	2.75E+04	226	0.45	provided a therapeutic effect	provided a therapeutic effect	P (a Pass initial pH corresponds to the pH being at or between 5.5-6.5)	P (a Pass initial pH corresponds to the pH being at or between 5.5-6.5)	P (a Pass initial pH corresponds to the pH being at or between 5.5-6.5)
C[C@H](N)C(=O)O [L-Alanine]	1.5	1.52	1.3	–	–	P (a Pass initial pH corresponds to the pH being at or between 5.5-6.5)	P (a Pass initial pH corresponds to the pH being at or between 5.5-6.5)	P (a Pass initial pH corresponds to the pH being at or between 5.5-6.5)
